How the values were obtained:
[1] = system: cGMP levels in PC12 cells; assay: cGMP levels in PC12 cells (radioimmunoassay); assay type: cell-based, rat; conditions: NGF-primed PC12 cells
Procedure: Initially, PC-12 cells were primed with 40 ng/ml NGF for 3 days in low serum medium (1.5% horse serum+5% fetal calf serum). Cells were seeded onto assay plates in low serum medium containing 40 ng/ml NGF and incubated for 1 hour. The medium was changed to low arginine medium (80 μM) with no serum and NGF and papaverine ([…]) where indicated. Test compounds were added for the indicated time and the reaction was stopped by adding 5% TCA containing 10,000 dpm of ^3H-cGMP. cGMP was assayed by the radioimmunoassay method of Maurice (Mol. Pharmacol. 37: 671-681, 1990). TCA was purified by adding powdered charcoal (5 g) and filtering the mixture through Whatman #1 paper. This removed contaminants in the TCA that otherwise interfere with the radioimmunoassay (RIA) of cGMP.
It was necessary to purify the cGMP from cAMP and other contaminants before radioimmunoassay since these other materials can interfere with the assay. Briefly, the TCA solution was applied to Dowex columns (50W-8X, 200-400 mesh) and eluted. A neutral alumina column was then placed under each Dowex column. The cGMP was eluted from the Dowex columns into neutral alumina columns by adding 4 mL of 0.05 M HCl to each Dowex column. The neutral alumina columns were then sequentially rinsed with 2 ml of HCl, 4 mL water and finally with 0.2 M sodium acetate (pH 6.2). The cGMP collected for the RIA eluted in 1 ML of sodium acetate with a recovery between 50-65%. The cGMP was assayed using a Dupont RIA kit.

NGF mRNA = assay: Northern/slot blot of neurotrophin mRNA from astrocytes: NGF; assay type: cell-based, NIH Swiss mice; parameters: key to NGF mRNA: The conditions which produced a detectable amount of each of the neurotrophin mRNAs are indicated by a “+”; a “++” indicating that at least twice the detectable amount was present; Those blots which were negative are indicated by a “−”; conditions: for NGF mRNA: 24 hours
Procedure: (§1) Induction of neurotrophin mRNA was determined by northern blot analysis of astrocytes cultured with AIT-082, NGF, or both. The cells were harvested and RNA extracted at 24 hours after treatment.
(§2) More particularly, astrocytes from the cerebral cortex of NIH Swiss mice (Harlan) were isolated. Briefly, newborn pups (0-24 hours) were decapitated. Their brains were removed under aseptic conditions and were placed in modified Dulbecco's medium (DMEM) containing 20% heat-inactivated horse serum (Hyclone) (“complete medium”). The neopallium was then dissected from each cerebral hemisphere and minced into 1 mm cubes.
(§3) The astrocytes were then isolated by mechanical dissociation. The cubes were vortexed at maximum speed for one minute. The cell suspension was then passed first through 75 mm Nitex then through 10 mm Nitex. The resulting cell suspension was diluted in complete medium to a final concentration of one brain per 10 ml of complete medium. Ten milliliters of the diluted cell suspension was added to each 100 mm Falcon tissue culture plate (Fisher). After 3 days the medium was replaced with 10 ml fresh complete medium and subsequently was replaced twice weekly with DMEM containing 10% heat inactivated horse serum (“growth medium”). After two weeks in culture the astrocytes formed a confluent monolayer.
(§4) For RNA extraction, astrocytes were trypsinized. The astrocytes were then replated onto 100 mm PORN coated plates at a cell density of 10^6 cells per plate (10 ml growth medium). After 2 hrs PBS, guanosine (Guo), or GTP at 10 mM were added to the appropriate plates. Total RNA was harvested from 1.5×10^7 cells for each treatment, 4 and 24 hrs after treatment using TRIzol reagent and supplier protocol (GIBCO BRL/Life Technologies, Inc.). For slot blots, total RNA was bound to Hybond-N filters (Amersham/United States Biochemicals) as described in Transfer and Immobilization of Nucleic Acids and Proteins to S & S Solid Supports (S and S Protocols: Schleicher & Schuell, New Hampshire, USA). Northern blots were also performed using […] total RNA from each sample. These were electrophoresed in 1% agarose gels containing formaldehyde and blotted onto Hybond-N filters according to S and S protocols.
(§5) The blots were probed with ^32P-labeled cDNA (NGF, NT-3 and BDNF probes) or oligonucleotide probe (FGF-2) by hybridization in Piperazine-N,N′-bis-(2-ethanesulfonic acid) (PIPES) buffer (50 mM PIPES, pH 6.8; 50 mM NaH2PO4; 0.1 M NaCl; 5% SDS and 1 mM EDTA) overnight at 50° C. […] Various concentrations ([…] of total RNA), as determined by spectrophotometry, of each sample were blotted and probed so that quantification could be done after insuring a linear film response. Quantification was performed using MCID Image Analysis (St. Catherine's, Ontario, Canada). […]

FGF-2 mRNA = assay: Northern/slot blot of neurotrophin mRNA from astrocytes: FGF-2; assay type: cell-based, NIH Swiss mice; parameters: key to FGF-2 mRNA: The conditions which produced a detectable amount of each of the neurotrophin mRNAs are indicated by a “+”; a “++” indicating that at least twice the detectable amount was present; Those blots which were negative are indicated by a “−”; conditions: for FGF-2 mRNA: 24 hours
Procedure: as §1, §2, §3, §4, §5

TGFβ2 = TGFβ2 release from rat cultured astrocytes (ELISA); assay type: cell-based
Procedure: NGF and TGFβ2 levels were assayed in the culture medium of the astrocytes by specific ELISA assays using kits from Roche (Germany) and Promega (USA) respectively. NGF basal levels were 56.3±3.2 pg/ml. TGFβ2 levels were 9.1±0.06 pg/ml.
In FIG. 61, the dose-response curves of NGF and TGFβ2 release from rat cultured astrocytes as the result of exposure to AIT-082 are shown.

rat cultured astrocytes = assay: Release of radioactively labeled adenine-based purines from rat cultured astrocytes; assay type: cell-based

## O=C(CCn1cnc2c(=O)[nH]cnc21)Nc1ccc(C(=O)O)cc1 [AIT-082, N-4-carboxyphenyl-3-(6-oxohydropurin-9-yl)propanamide]
[1]
  cGMP in PC12 cells: increased the production of cGMP
NGF mRNA; AIT-082 100 mM
  NGF mRNA: ++
NGF mRNA; AIT-082 + NGF (40 ng/ml)
  NGF mRNA: +
FGF-2 mRNA; AIT-082 100 mM
  FGF-2 mRNA: ++
FGF-2 mRNA; AIT-082 + NGF (40 ng/ml)
  FGF-2 mRNA: +
TGFβ2; rat cultured astrocytes
  increase of TGFβ2 production as compared to a control: 1.7 fold
Rat cultured astrocytes; astrocytes exposed for one hour
  outflow of radioactive adenine-based purines: dose-dependent increase
Rat cultured astrocytes; first hour of the release
  release of adenosine and inosine: increased the release of adenosine and inosine in a dose-dependent fashion
  release of hypoxanthine and the adenine nucleotides ATP, ADP, or AMP: without effecting the release

## Nc1nc2c(ncn2[C@@H]2O[C@H](CO)[C@@H](O)[C@H]2O)c(=O)[nH]1 [guanosine]
[1]
  cGMP in PC12 cells: increased intracellular cGMP
NGF mRNA; guanosine, 4 hours after addition
  NGF mRNA in astrocytes: increased
FGF-2 mRNA; guanosine, 24 hours after addition
  FGF-2 mRNA in astrocytes: increased
TGFβ2; exposure for 24 hours
  release of TGFβ2 from astrocytes: dose-dependent increase
Rat cultured astrocytes; 300 μM, 1 hour
  ADP, radioactivity released in the culture medium: 0.84 ± 0.09 cpm × 10^3
  AMP, proportional release: (12.3 ± 1.7) percentage of the total [^3H]-purines released
  AMP, radioactivity released in the culture medium: 1.58 ± 0.22 cpm × 10^3
  ATP, proportional release: (5.5 ± 0.7) percentage of the total [^3H]-purines released
  ATP, radioactivity released in the culture medium: 0.71 ± 0.09 cpm × 10^3
  Adenosine, radioactivity released in the culture medium: 1.53 ± 0.10 cpm × 10^3
  Hypoxanthine, proportional release: (24.7 ± 1.5) percentage of the total [^3H]-purines released
  Hypoxanthine, radioactivity released in the culture medium: 3.41 ± 0.20 cpm × 10^3
  Inosine, radioactivity released in the culture medium: 4.64 ± 0.51 cpm × 10^3
Rat cultured astrocytes; 300 μM, 3 hours
  ADP, proportional release: (4.0 ± 0.6) percentage of the total [^3H]-purines released
  ADP, radioactivity released in the culture medium: 0.50 ± 0.07 cpm × 10^3
  AMP, proportional release: (11.9 ± 1.0) percentage of the total [^3H]-purines released
  AMP, radioactivity released in the culture medium: 1.37 ± 0.14 cpm × 10^3
  ATP, proportional release: (3.1 ± 0.32) percentage of the total [^3H]-purines released
  ATP, radioactivity released in the culture medium: 0.39 ± 0.04 cpm × 10^3
  Adenosine, proportional release: (9.3 ± 0.9) percentage of the total [^3H]-purines released
  Adenosine, radioactivity released in the culture medium: 1.16 ± 0.15 cpm × 10^3
  Hypoxanthine, proportional release: (26.3 ± 2.7) percentage of the total [^3H]-purines released
  Hypoxanthine, radioactivity released in the culture medium: 3.29 ± 0.34 cpm × 10^3
  Inosine, proportional release: (3.25 ± 3.3) percentage of the total [^3H]-purines released
  Inosine, radioactivity released in the culture medium: 4.09 ± 0.41 cpm × 10^3

Source: patent US6338963B1, “Use of carbon monoxide dependent guanylyl cyclase modifiers to stimulate neuritogenesis” (NeoTherapeutics, Inc., priority 1994, dated 2002)
